Measured values published in paper PMC6112376, “Comprehensive Analyses and Prioritization of Tox21 10K Chemicals Affecting Mitochondrial Function by in-Depth Mechanistic Studies” (Environmental Health Perspectives, 2018).

Legend:
[1] = system: HeLa cells expressing YFP-Parkin; experiment: Parkin translocation assay; assay type: cell-based, human
rat primary hepatocytes [2] = experiment: MMP assay in rat primary hepatocytes; conditions: Rattus norvegicus, Hepatocyte, 1 h, read-out: Rat hepatocytes IC50 (MMP)
HepG2 cells [3] = experiment: Intracellular ATP content (cell viability) assay; assay type: cell-based, human; conditions: Homo sapiens, HepG2, 40 h
HepG2 cells [4] = experiment: cells; conditions: Homo sapiens, HepG2, 1 h
[5] = system: Caenorhabditis elegans (Bristol N2); experiment: C. elegans larval development and growth assay
[6] = system: isolated rat liver mitochondria; experiment: Oxygen consumption, Clark-type oxygen electrode; assay type: biochemical
[7] = system: Caenorhabditis elegans strain PE255; experiment: In vivo C. elegans ATP status assay
HepG2 cells [8] = experiment: ROS-Glo hydrogen peroxide (ROS) assay; assay type: cell-based, human; conditions: Homo sapiens, HepG2, 2 h, read-out: ROS (HepG2) EC50
[9] = system: Nrf2/ARE (ARE-bla HepG2 cells); experiment: ARE β-lactamase reporter gene assay; assay type: cell-based, human; conditions: Homo sapiens, HepG2; 16 h incubation; mean±SD of three experiments; read-out: ARE (HepG2) EC50
[10] = system: p53 (p53-bla HCT-116 cells); experiment: p53 β-lactamase reporter gene assay; assay type: cell-based, human; conditions: Homo sapiens; 16 h incubation; mean±SD of three experiments
hNSC = experiment: MMP assay in human neural stem cells (hNSC); assay type: cell-based; conditions: Homo sapiens, Neural stem cell, 1 h, read-out: hNSC IC50 (MMP)
rat primary hepatocytes [11] = system: rat primary hepatocytes

CCC(C)c1cc([N+](=O)[O-])cc([N+](=O)[O-])c1O (stereo not shown) [Dinoseb]
Parkin recruitment [1]: Active
IC50 (rat primary hepatocytes [2]): 4.5 µM
IC50 (HepG2 cells [3]; read-out: ATP (HepG2, galactose) IC50): 32.6 µM
IC50 (HepG2 cells [3]; read-out: ATP (HepG2, glucose) IC50): 36.8 µM
IC50 (HepG2 cells [4]; read-out: HepG2 IC50 Galactose (MMP)): 16.5 µM
IC50 (HepG2 cells [4]; read-out: HepG2 IC50 Glucose (MMP)): 12.4 µM
EXT: mean difference in nematode size relative to plate controls ([5]; 0.5 µM): -0.01247
EXT: mean difference in nematode size relative to plate controls ([5]; 1 µM): -0.02122
EXT: mean difference in nematode size relative to plate controls ([5]; 5 µM): -0.00308
EXT: mean difference in nematode size relative to plate controls ([5]; 10 µM): 0.1196
EXT: mean difference in nematode size relative to plate controls ([5]; 25 µM): 0.1256
EXT: mean difference in nematode size relative to plate controls ([5]; 50 µM): 0.4169
EXT: mean difference in nematode size relative to plate controls ([5]; 75 µM): 0.7162
EXT: mean difference in nematode size relative to plate controls ([5]; 100 µM): 0.9301
minimal effective concentration ([5]; Caenorhabditis elegans, read-out: LEC EXT: lowest effect concentration for extinction, a measure of nematode size): 50 µM
Potential Mechanism [6]: Uncoupler at low concentrations (0.032-0.16 µM), and Uncoupler + inhibitor at high concentrations (0.8-100 µM)
I-ADP, % of control (O2 consumption rate) ([6]; 0.0064 µM): 89 (38.7) % of control
I-sub, % of control (O2 consumption rate) ([6]; 0.0064 µM): 118 (15.5) % of control
II-ADP, % of control (O2 consumption rate) ([6]; 0.0064 µM): 98 (66.3) % of control
II-sub, % of control (O2 consumption rate) ([6]; 0.0064 µM): 122 (25.5) % of control
I-ADP, % of control (O2 consumption rate) ([6]; 0.032 µM): 97 (42.2) % of control
I-sub, % of control (O2 consumption rate) ([6]; 0.032 µM): 131 (17.2) % of control
II-ADP, % of control (O2 consumption rate) ([6]; 0.032 µM): 92 (62.6) % of control
II-sub, % of control (O2 consumption rate) ([6]; 0.032 µM): 137 (28.6) % of control
I-ADP, % of control (O2 consumption rate) ([6]; 0.16 µM): 106 (46.2) % of control
I-sub, % of control (O2 consumption rate) ([6]; 0.16 µM): 181 (23.7) % of control
II-ADP, % of control (O2 consumption rate) ([6]; 0.16 µM): 98 (66.1) % of control
II-sub, % of control (O2 consumption rate) ([6]; 0.16 µM): 199 (41.5) % of control
I-ADP, % of control (O2 consumption rate) ([6]; 0.8 µM): 138 (59.9) % of control
I-sub, % of control (O2 consumption rate) ([6]; 0.8 µM): 423 (55.4) % of control
II-ADP, % of control (O2 consumption rate) ([6]; 0.8 µM): 59 (40.0) % of control
II-sub, % of control (O2 consumption rate) ([6]; 0.8 µM): 193 (40.3) % of control
I-ADP, % of control (O2 consumption rate) ([6]; 4 µM): 111 (48.1) % of control
I-sub, % of control (O2 consumption rate) ([6]; 4 µM): 347 (45.5) % of control
II-ADP, % of control (O2 consumption rate) ([6]; 4 µM): 28 (19.1) % of control
II-sub, % of control (O2 consumption rate) ([6]; 4 µM): 96 (20.0) % of control
I-ADP, % of control (O2 consumption rate) ([6]; 20 µM): 70 (30.6) % of control
I-sub, % of control (O2 consumption rate) ([6]; 20 µM): 242 (31.7) % of control
II-ADP, % of control (O2 consumption rate) ([6]; 20 µM): 18 (12.1) % of control
II-sub, % of control (O2 consumption rate) ([6]; 20 µM): 64 (13.3) % of control
I-ADP, % of control (O2 consumption rate) ([6]; 100 µM): 13 (6.5) % of control
I-sub, % of control (O2 consumption rate) ([6]; 100 µM): 33 (7.1) % of control
II-ADP, % of control (O2 consumption rate) ([6]; 100 µM): 12 (6.9) % of control
II-sub, % of control (O2 consumption rate) ([6]; 100 µM): 22 (7.8) % of control
LUM: mean difference in luminescence (ATP content) relative to plate controls ([7]; 0.5 µM): 0.1603
LUM: mean difference in luminescence (ATP content) relative to plate controls ([7]; 1 µM): 0.2694
LUM: mean difference in luminescence (ATP content) relative to plate controls ([7]; 5 µM): 0.2298
LUM: mean difference in luminescence (ATP content) relative to plate controls ([7]; 10 µM): 0.4579
LUM: mean difference in luminescence (ATP content) relative to plate controls ([7]; 25 µM): 0.5745
LUM: mean difference in luminescence (ATP content) relative to plate controls ([7]; 50 µM): 0.9424
LUM: mean difference in luminescence (ATP content) relative to plate controls ([7]; 75 µM): 1.122
LUM: mean difference in luminescence (ATP content) relative to plate controls ([7]; 100 µM): 1.3353
minimal effective concentration ([7]; Caenorhabditis elegans, read-out: LEC LUM: lowest effect concentration for luminescence, a measure of nematode ATP content): 50 µM
EC50 (HepG2 cells [8]): 27.6 µM
EC50 [9]: 0.76 ± 0.13 µM
EC50 [10]: 2.63 ± 1.78 µM
IC50 (hNSC): 22.3 µM
Rat hepatocytes (efficacy) (MMP) (rat primary hepatocytes [11]): 4.50±0.81 ( −130±39.0 ) %
